The values that follow are results of earlier work, collected in patent US20220304303A1, “INSECT REPELLENT PATCHES” (The Natural Patch Company Pty Ltd, priority 2021, published 2022).

For the series the following is noted: products containing between 10% and 30% DEET, used as directed.

With `CCN(CC)C(=O)c1cccc(C)c1` [DEET, Diethyltoluamide], the “safety in use on children and adults” value is given as “safe to use on children, as well as adults”.
